Assays:
[1] = target: T1, recombinant human cannabinoid receptor CB2 (Homo sapiens, UniProt P34972); assay: Cannabinoid receptor radioligand binding assay, [3H]-CP 55,940 displacement, hCB2
T1 construct: (cDNA clone) CNR0200000
In short: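 Receptor source: membrane pellet (40,000×g) from transfected cells, stored in HEPES pH 7.4/MgCl2/EDTA/sucrose buffer.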

human CB2 receptors = target: T2, human CB2 receptors (Homo sapiens, UniProt P34972); assay: cAMP assay in HEK-293 cells, hCB2 agonist; format: cell-based; conditions: inhibition of forskolin-stimulated cAMP, HEK-293 cells; read-out: hCB2 EC50 (cAMP ag)
T2 construct: (cDNA clone) CNR0200000
In short: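 Stable hCB2 HEK-293 cells in HBSS/10 mM HEPES/0.1% fatty-acid-free BSA incubated 30 min at 37° C with compound; forskolin 90 uM in 3× compound mix.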

human CB1 receptors = target: T3, human CB1 receptors (Homo sapiens, UniProt P21554); assay: cAMP assay in HEK-293 cells, hCB1 agonist; format: cell-based; conditions: inhibition of forskolin-stimulated cAMP, HEK-293 cells
T3 construct: (cDNA clone) CNR01L000
In short: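 Agonist EC50 taken as concentration giving half inhibition of forskolin-driven cAMP, normalized to forskolin maximum, from sigmoidal curves. Whole HEK-293 cells stably expressing hCB1, in HEPES/BSA-containing HBSS, exposed 30 min at 37° C. to compound with forskolin (90 uM in 3× dilution); cAMP read after lysis.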

T1 sequence (P34972 whole entry): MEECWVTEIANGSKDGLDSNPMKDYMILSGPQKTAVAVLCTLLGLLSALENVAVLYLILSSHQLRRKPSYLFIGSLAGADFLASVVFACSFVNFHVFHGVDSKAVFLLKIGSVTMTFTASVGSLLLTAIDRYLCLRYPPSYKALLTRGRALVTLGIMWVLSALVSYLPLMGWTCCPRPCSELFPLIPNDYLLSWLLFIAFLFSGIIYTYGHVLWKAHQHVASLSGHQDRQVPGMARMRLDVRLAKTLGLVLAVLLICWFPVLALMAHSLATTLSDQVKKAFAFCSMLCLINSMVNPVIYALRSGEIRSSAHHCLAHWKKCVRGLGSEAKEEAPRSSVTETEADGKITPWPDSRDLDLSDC
T2 sequence (P34972 whole entry): as above
T3 sequence (P21554 whole entry): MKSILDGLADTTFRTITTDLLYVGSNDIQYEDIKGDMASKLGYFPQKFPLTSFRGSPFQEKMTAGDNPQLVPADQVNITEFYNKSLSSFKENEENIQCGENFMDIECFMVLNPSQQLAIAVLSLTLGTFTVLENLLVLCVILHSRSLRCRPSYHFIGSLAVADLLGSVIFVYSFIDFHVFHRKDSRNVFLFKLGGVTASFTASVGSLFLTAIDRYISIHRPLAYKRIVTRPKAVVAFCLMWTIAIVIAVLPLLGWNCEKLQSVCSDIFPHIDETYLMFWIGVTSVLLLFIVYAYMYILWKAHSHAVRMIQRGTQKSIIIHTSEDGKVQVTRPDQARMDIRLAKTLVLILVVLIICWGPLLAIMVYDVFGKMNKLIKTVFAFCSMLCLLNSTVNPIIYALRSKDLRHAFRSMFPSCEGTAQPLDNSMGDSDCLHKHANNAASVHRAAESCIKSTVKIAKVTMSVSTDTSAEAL

For COc1ccc(C(=O)c2cc3cc(C)n(CCN4CCC(OC)C4)c3s2)cn1 (stereo not drawn) [Compound 147, (6-methoxypyridin-3-yl)(6-(2-(3-methoxypyrrolidin-1-yl)ethyl)-5-methyl-6H-thieno[2,3-b]pyrrol-2-yl)methanone], the IC50 [1] was 1 to 10 µM, the EC50 (human CB2 receptors) was 0.1 to 1 µM and the “hCB1 EC50 (cAMP ag, nM)” value (human CB1 receptors) was “NS (NS means “Not Significant,” which means less than 30% agonist activity when compared to the positive control.)”.

Reference: patent publication US20130029970A1 (priority 2009, published 2013)
